Measurements taken from patent publication US20160368868A1, “N-(1-CYANO-2-HYDROXY-1-METHYL-ETHYL)-4-(TRIFLUOROMETHYLSULFANYL)BENZAMIDE DERIVATIVES FOR USE AS NEMATOCIDAL DRUGS” (UNIVERSITÄT ZÜRICH Prorektorat MNW, priority 2013, published 2016).

Columns and labels:
Dirofilaria immitis = test: Activity in vitro against Dirofilaria immitis microfilariae (motility); type: cell-based; conditions: at up to 10 μg/mL; efficacy in percent reduced motility of microfilariae; 48 hours at 26° C.
H. contortus = test: Larval development assay (LDA); conditions: for LD50 against H. Contortus: larval development assay, L3 counted after 7 days; for inhibition of the development of H. contortus larvae: at concentrations between 100 μM and 25 μM
HeLa = test: Resazurin fluorometric cell viability assay, HeLa; conditions: Homo sapiens, 48 h, read-out: IC50 in HeLa
Protocol: (§1) The toxicity towards a human cervical cancer HeLa and a non-cancerous (MRC-5) cell line was determined using the fluorometric cell viability assay (Resazurin) (Ahmed et al., J. Immunol. Methods 1994, 170, 211.), results of which are shown in Table 1.
(§2) Human cervical carcinoma cells (HeLa) cells were cultured in DMEM (Gibco) supplemented with 5% fetal calf serum (FCS, Gibco), 100 U/ml penicillin, 100 μg/ml streptomycin at 37° C. and 5% CO2. The normal human fetal lung fibroblast MRC-5 cell line was maintained in F-10 medium (Gibco) supplemented with 10% FCS (Gibco), penicillin (100 U/ml), and streptomycin (100 μg/ml). Cytotoxicity studies were performed on two different cell lines, namely HeLa, and MRC-5, by a fluorometric cell viability assay using Resazurin (Promocell GmbH). Briefly, one day before treatment, cells were seeded in triplicates in 96-well plates at a density of 4×10^3 cells/well for HeLa and 7×10^3 for MRC-5 in 1041.1 growth medium. Upon treating cells with increasing concentrations of Fc-PZQ derivatives for 48h, the medium was removed, and 100 μl complete medium containing Resazurin (0.2 mg/ml final concentration) were added. After 4h of incubation at 37° C., fluorescence of the highly red fluorescent product Resorufin was quantified at 590 nm emission with 540 nm excitation wavelength in a SpectraMax M5 microplate Reader.

MRC-5 = test: Resazurin fluorometric cell viability assay, MRC-5; conditions: Homo sapiens, MRC5, 48 h, read-out: IC50 in MRC-5
Protocol: as §1, §2

CC(C#N)(COC(=O)c1ccccc1)NC(=O)c1ccc(SC(F)(F)F)cc1 (centres unmarked)
Activity against Dirofilaria immitis (Dirofilaria immitis): EC6 at up to 10 μg/mL

CC(C#N)(CO)NC(=O)c1ccc(C(F)(F)F)cc1 (centres unmarked)
Activity against Dirofilaria immitis (Dirofilaria immitis): EC25 at up to 10 μg/mL

C[C@](C#N)(COc1cc(C#N)ccc1C(F)(F)F)NC(=O)c1ccc(SC(F)(F)F)cc1 [Zolvix, Monepantel, reference compound]
LD50 against H. Contortus (H. contortus): <41 nM
IC50 (HeLa): 34.1 µM
IC50 (MRC-5): 63.9 µM

CSc1ccc(C(=O)NC(C)(C#N)CO)cc1 (centres unmarked)
Activity against Dirofilaria immitis (Dirofilaria immitis): EC15 at up to 10 μg/mL

CC(=O)OCC(C)(C#N)NC(=O)c1ccc(SC(F)(F)F)cc1 (centres unmarked) [ahpOH1, 2-Cyano-2-(4-((trifluoromethyl)thio)benzamido)propyl acetate]
inhibition of the development of H. contortus larvae (H. contortus): severely and reproducibly inhibited
LD50 against H. Contortus (H. contortus): 550 nM
IC50 (HeLa): > 100 µM
IC50 (MRC-5): > 100 µM

CC(C#N)(CO)NC(=O)c1ccc([S+]([O-])C(F)(F)F)cc1 (centres unmarked)
Activity against Dirofilaria immitis (Dirofilaria immitis): EC5 at up to 10 μg/mL

CC(C#N)(CO)NC(=O)c1ccc(SC(F)(F)F)cc1 (centres unmarked) [ahpOH, N-(2-cyano-1-hydroxypropan-2-yl)-4-((trifluoromethyl)thio)benzamide]
inhibition of the development of H. contortus larvae (H. contortus): severely and reproducibly inhibited
LD50 against H. Contortus (H. contortus): 173 nM
IC50 (HeLa): > 100 µM
IC50 (MRC-5): > 100 µM

CC(C#N)(CO)NC(=O)c1ccc(S(=O)(=O)C(F)(F)F)cc1 (centres unmarked)
Activity against Dirofilaria immitis (Dirofilaria immitis): EC15 at up to 10 μg/mL

C#CC(=O)OCC(C)(C#N)NC(=O)c1ccc(SC(F)(F)F)cc1 (centres unmarked)
Activity against Dirofilaria immitis (Dirofilaria immitis): EC15 at 0-10 μg/mL

CC(C#N)(CO)NC(=O)c1ccc(SC(F)(F)F)cc1 (centres unmarked) [drawing 36]
Activity against Dirofilaria immitis (Dirofilaria immitis): EC20 at up to 10 μg/mL

CC(C#N)(CO)NC(=O)c1ccc(F)cc1 (centres unmarked)
Activity against Dirofilaria immitis (Dirofilaria immitis): EC20 at up to 10 μg/mL

CC(C#N)(CO)NC(=O)c1ccc(I)cc1 (centres unmarked)
Activity against Dirofilaria immitis (Dirofilaria immitis): EC15 at up to 10 μg/mL
